Molecular target: T1, PRKCN (PKD3) (Homo sapiens, UniProt O94806)
T1 construct: purchased Thermo Fisher Scientific (Life Technologies) SelectScreen
Experiment: SelectScreen Z'LYTE
Assay type: biochemical
Outline: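 SelectScreen broad panel; activity (Z'LYTE, Adapta) plus binding formats. ATP: Km app for CSF1R Z'LYTE; 10 for CAMK1 Adapta. Readout = % per kinase.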

T1 sequence (O94806 whole entry): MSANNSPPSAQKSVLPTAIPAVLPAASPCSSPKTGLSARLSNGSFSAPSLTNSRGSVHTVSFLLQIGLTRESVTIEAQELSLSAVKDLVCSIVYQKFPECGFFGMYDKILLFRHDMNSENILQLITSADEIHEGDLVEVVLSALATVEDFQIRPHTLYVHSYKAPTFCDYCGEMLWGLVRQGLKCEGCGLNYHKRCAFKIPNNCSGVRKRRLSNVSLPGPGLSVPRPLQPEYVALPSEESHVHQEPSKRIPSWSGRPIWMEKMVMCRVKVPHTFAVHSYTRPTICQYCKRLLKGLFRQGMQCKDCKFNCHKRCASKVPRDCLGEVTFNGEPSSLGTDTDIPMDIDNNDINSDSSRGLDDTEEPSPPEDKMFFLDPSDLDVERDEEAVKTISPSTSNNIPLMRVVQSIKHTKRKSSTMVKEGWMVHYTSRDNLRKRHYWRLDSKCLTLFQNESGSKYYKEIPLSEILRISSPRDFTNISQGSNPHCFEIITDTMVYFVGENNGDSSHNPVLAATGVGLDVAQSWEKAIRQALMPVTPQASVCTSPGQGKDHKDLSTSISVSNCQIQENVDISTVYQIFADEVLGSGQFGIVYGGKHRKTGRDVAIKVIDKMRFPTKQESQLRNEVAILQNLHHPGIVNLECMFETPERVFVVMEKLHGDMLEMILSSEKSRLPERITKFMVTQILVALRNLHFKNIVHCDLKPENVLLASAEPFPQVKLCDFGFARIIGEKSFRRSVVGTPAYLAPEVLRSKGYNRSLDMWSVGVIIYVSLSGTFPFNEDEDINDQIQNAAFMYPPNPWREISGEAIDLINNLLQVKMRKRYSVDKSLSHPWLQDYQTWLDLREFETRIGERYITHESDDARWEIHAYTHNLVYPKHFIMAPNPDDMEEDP

CN(C(=O)CN1CCOCC1)c1ccc2sc3c(-c4cccc5c(=O)cc(N6CC7CCC(C6)O7)oc45)cccc3c2c1 [NU5455]
inhibition at 1 µM: 10.7%
